Experimental data taken from patent US4461899A, “Fluorenecarboxylic acid derivatives” (Diamond Shamrock Chemicals Company, priority 1982, dated 1984).
Entries after “also recorded” stand apart in the source; their conditions may differ. Structures can show the parent of a compound that is named as a salt.

Columns and labels:
[1] = test system: Kentucky and Merion turfgrass mixture; assay: Turfgrass growth retardation (height and fresh weight of clippings) after spraying; format: in vivo; details: for % Reduction in Weight / Reduction in Height: vs control
Experimental: Two known plant growth regulants were similarly tested. Some grass samples were not treated, only fertilized, as controls. Before treatment, the grass was cut and then fertilized with a 20-20-20 water-soluble fertilizer. Three pots were sprayed per treatment. […] The pots were placed in a plant growth room and were watered daily. The grass was cut at 21, 49 and 84 days after being treated; the blade height and total fresh weight of the clippings were measured.

[2] = test system: "Walter" variety tomato plants; assay: Yield of "Walter" variety tomatoes, weekly harvest of mature red fruit; format: in vivo; details: for Total Fruit / Total Fruit, % of Control: weeks 1-6
Description: Compounds of this invention were further tested as tomato yield enhancers as follows:
"Walter" variety tomato plants, in the early flowering stage, were foliage sprayed at a rate of 68.8 liters/hectare with compounds of this invention, and with the commercial product, CF-125. Each plot consisted of 20 plants; the experimental design was a completed randomized block with three replications. A plot of untreated plants was included as a control. Marketable, mature red tomatoes were harvested weekly, beginning 5 weeks after treatment.

[3] = test system: field grown tomato plants; assay: Overall yield and fruit size of field grown tomatoes; format: in vivo; details: for Fruit Size, Green (% of Control): control 104.0 g; for Fruit Size, Red (% of Control): control 105.5 g
Description: This example illustrates the effects of compounds of this invention on overall yield of tomatoes. For the test, field grown tomato plants, when in the early flowering stage, were foliage sprayed with the particular compounds of the invention designated below, and with the commercial product CF-125 (Maintain), at rates of 10, 50 and 500 ppm. These rates correspond to applications of 3.69 g, 18.54 g and 185.4 g/hectare, respectively. Each treatment consisted of five plants; the experimental design was a complete randomized block with three replications. A block of untreated plants was included as the control. The fruit was harvested by hand and separated into […] ripe fruit and marketable green fruit.

[4] = test system: field grown tomato plants; assay: Fruit set and phytotoxicity in field grown tomato plants; format: in vivo; details: for Increase Over Control (%) of fruit set: 24 days; for Fruit Set Per Plant (After 24 days) / Phytotoxicity: 24 days after treatment; for Increase (%) of fruit set: initial to 24 days
Description: To determine fruit set effects by compounds of this invention, field grown tomato plants were foliage sprayed with the cis-2,5-dimethylpyrrolidine salt of […], 9-cis-2,5-dimethyl-1-pyrrolidinyl-2-chlorofluorene-9-carboxylic acid, methyl ester, and the commercial plant growth regulant, MAINTAIN CF-125 (methyl-2-chloro-9hydroxyfluorene-9-carboxylate, manufactured by U.S. Borax and Chemical Corp.). Rates of application employed were 5, 25, and 100 ppm when the tomato plants were in the late blooming to early fruit setting stage. Untreated plants were included in the test as controls. Five plants were sprayed for each chemical treatment. The number of fruit set and the degree of phytotoxicity to the plants were determined 24 days after treatment.

[5] = test system: plants being treated; details: background; in many instances; cited from earlier work
[6] = test system: soybean plants; assay: Soybean yield after foliar spray at early flowering stage; format: in vivo; details: for Yield Improvement %: vs control
Description: Two 50 cm rows of soybean plants at the early flowering stage were sprayed with 100 ppm or 500 ppm of the cis-2,5-dimethylpyrrolidine salt of 9-fluorenecarboxylic acid, using a spray volume of about 375 liters/hectare (40 gallons/acre). For comparison, other rows were sprayed with like concentrations of two known compounds as designated below. Also 2 untreated rows were maintained to serve as a control: each of the plots was weeded by hand as needed. At maturity, each plot was harvested and the yield was determined.

[7] = 1.12 kilogram/hectare, after 21 days
[8] = 1.12 kilogram/hectare, after 49 days
[9] = 1.12 kilogram/hectare, after 84 days
[10] = 2.24 kilogram/hectare, after 21 days
[11] = 2.24 kilogram/hectare, after 49 days
[12] = 2.24 kilogram/hectare, after 84 days
[13] = 4.48 kilogram/hectare, after 21 days
[14] = 4.48 kilogram/hectare, after 49 days
[15] = 4.48 kilogram/hectare, after 84 days
[16] = third dosage column, printed 1.12 kilogram/hectare, after 21 days

## COC(=O)C1(O)c2ccccc2-c2ccc(Cl)cc21 (centres unmarked) [MAINTAIN CF-125, methyl-2-chloro-9-hydroxyfluorene-9-carboxylate]
[1]; [7]
  % Reduction in Weight: 31%
  Reduction in Height: 36%
[1]; [8]
  % Reduction in Weight: 0%
  Reduction in Height: 3%
[1]; [9]
  % Reduction in Weight: 0%
  Reduction in Height: 0%
[1]; [10]
  % Reduction in Weight: 38%
  Reduction in Height: 42%
[1]; [11]
  % Reduction in Weight: 0%
  Reduction in Height: 0%
[1]; [12]
  % Reduction in Weight: 0%
  Reduction in Height: 0%
[1]; [13]
  Reduction in Height: 50%
[1]; [14]
  % Reduction in Weight: 4%
  Reduction in Height: 14%
[1]; [15]
  % Reduction in Weight: 0%
  Reduction in Height: 0%
[1]; [16]
  % Reduction in Weight: 52%
[2]; 5 ppm
  Fruit Yield (kg/plot): 25.6 kg/plot
  Total Yield Wt. % of Control: 108.0 % of Control
  Fruit harvested, Harvest Time (Week) 1: 34
  Fruit harvested, Harvest Time (Week) 2: 206
  Fruit harvested, Harvest Time (Week) 3: 139
  Fruit harvested, Harvest Time (Week) 4: 40
  Fruit harvested, Harvest Time (Week) 5: 29
  Fruit harvested, Harvest Time (Week) 6: 178
  Total Fruit: 626
  Total Fruit, % of Control: 109 % of Control
[2]; 10 ppm
  Fruit Yield (kg/plot): 15.3 kg/plot
  Total Yield Wt. % of Control: 64.8 % of Control
  Fruit harvested, Harvest Time (Week) 1: 6
  Fruit harvested, Harvest Time (Week) 2: 192
  Fruit harvested, Harvest Time (Week) 3: 92
  Fruit harvested, Harvest Time (Week) 4: 16
  Fruit harvested, Harvest Time (Week) 5: 4
  Fruit harvested, Harvest Time (Week) 6: 69
  Total Fruit: 379
  Total Fruit, % of Control: 66 % of Control
[2]; 50 ppm
  Fruit Yield (kg/plot): 2.6 kg/plot
  Total Yield Wt. % of Control: 11.0 % of Control
  Fruit harvested, Harvest Time (Week) 1: 15
  Fruit harvested, Harvest Time (Week) 2: 18
  Fruit harvested, Harvest Time (Week) 3: 8
  Fruit harvested, Harvest Time (Week) 4: 0
  Fruit harvested, Harvest Time (Week) 5: 0
  Fruit harvested, Harvest Time (Week) 6: 2
  Total Fruit: 43
  Total Fruit, % of Control: 7 % of Control
[3]; 10 ppm
  Fruit Yield, Green (% of Control): 25 % of Control
  Fruit Yield, Red (% of Control): 24 % of Control
  Total Yield (% of Control): 25 % of Control
  Fruit Size, Green (% of Control): 104 % of Control
  Fruit Size, Red (% of Control): 97 % of Control
[3]; 50 ppm
  Fruit Yield, Green (% of Control): 12 % of Control
  Fruit Yield, Red (% of Control): 122 % of Control
  Total Yield (% of Control): 44 % of Control
  Fruit Size, Green (% of Control): 62 % of Control
  Fruit Size, Red (% of Control): 88 % of Control
[3]; 500 ppm
  Fruit Yield, Green (% of Control): 3 % of Control
  Fruit Yield, Red (% of Control): 79 % of Control
  Total Yield (% of Control): 29 % of Control
  Fruit Size, Green (% of Control): 54 % of Control
  Fruit Size, Red (% of Control): 108 % of Control
[4]; 5 ppm
  Increase Over Control (%) of fruit set: -35%
  Fruit Set Per Plant (After 24 days): 11.8
  Fruit Set Per Plant (Initial): 7.8
  Increase (%) of fruit set: 38%
[4]; 25 ppm
  Increase Over Control (%) of fruit set: -23%
  Fruit Set Per Plant (After 24 days): 12.6
  Fruit Set Per Plant (Initial): 8.4
  Increase (%) of fruit set: 50%
[4]; 100 ppm
  Increase Over Control (%) of fruit set: -55%
  Fruit Set Per Plant (After 24 days): 8.0
  Fruit Set Per Plant (Initial): 6.8
  Increase (%) of fruit set: 18%
[5]
  phytotoxicity, in words: phytotoxic to the plants being treated

## O=C(O)c1cccc2c1Cc1ccccc1-2 [Example 1, cis-2,5-dimethyl-1-pyrrolidine salt of 1-fluorenecarboxylic acid]
[6]; 100 ppm
  Yield (Kilograms) × 10^2: 19.38 Kilograms × 10^2
  Yield Improvement %: 9.8%
[6]; 500 ppm
  Yield (Kilograms) × 10^2: 21.98 Kilograms × 10^2
  Yield Improvement %: 24.1%
[1]; [7]
  % Reduction in Weight: 76%
  Reduction in Height: 50%
[1]; [8]
  % Reduction in Weight: 45%
  Reduction in Height: 45%
[1]; [9]
  % Reduction in Weight: 0%
  Reduction in Height: 0%
[1]; [10]
  % Reduction in Weight: 73%
  Reduction in Height: 48%
[1]; [11]
  % Reduction in Weight: 64%
  Reduction in Height: 46%
[1]; [12]
  % Reduction in Weight: 0%
  Reduction in Height: 0%
[1]; [13]
  Reduction in Height: 56%
[1]; [14]
  % Reduction in Weight: 63%
  Reduction in Height: 46%
[1]; [15]
  % Reduction in Weight: 19%
  Reduction in Height: 31%
[1]; in words
  appearance of treated turf (leaf, texture): fine leaf and smooth texture; it did not have the twisted, yellowish leaves
[1]; in words, compared with MAINTAIN CF-125 and MOW-LESS
  activity in controlling grass growth: more active in controlling grass growth than either MAINTAIN CF-125 or MOW-LESS
[1]; [16]
  % Reduction in Weight: 75%
[3]; 10, 50 and 500 ppm, Example 1 decrease at 500 ppm
  tomato yield / fruit size, in words: enhanced, at the rates applied, either the total yield of tomatoes and/or the percentage of red fruit vs. green fruit; also recorded: caused a decrease in all yields when applied at a rate of 500 ppm
[3]; 10 ppm
  Fruit Yield, Green (% of Control): 92 % of Control
  Fruit Yield, Red (% of Control): 152 % of Control
  Total Yield (% of Control): 113 % of Control
  Fruit Size, Green (% of Control): 76 % of Control
  Fruit Size, Red (% of Control): 87 % of Control
[3]; 50 ppm
  Fruit Yield, Green (% of Control): 45 % of Control
  Fruit Yield, Red (% of Control): 149 % of Control
  Total Yield (% of Control): 80 % of Control
  Fruit Size, Green (% of Control): 93 % of Control
  Fruit Size, Red (% of Control): 73 % of Control
[3]; 500 ppm
  Fruit Yield, Green (% of Control): 54 % of Control
  Fruit Yield, Red (% of Control): 68 % of Control
  Total Yield (% of Control): 59 % of Control
  Fruit Size, Green (% of Control): 87 % of Control
  Fruit Size, Red (% of Control): 79 % of Control
[4]; 5 ppm
  Increase Over Control (%) of fruit set: 35%
  Fruit Set Per Plant (After 24 days): 16.2
  Phytotoxicity: 0
  Fruit Set Per Plant (Initial): 7.6
  Increase (%) of fruit set: 108%
[4]; 25 ppm
  Increase Over Control (%) of fruit set: 18%
  Fruit Set Per Plant (After 24 days): 21.0
  Phytotoxicity: 0
  Fruit Set Per Plant (Initial): 11.0
  Increase (%) of fruit set: 91%
[4]; 100 ppm
  Increase Over Control (%) of fruit set: 47%
  Fruit Set Per Plant (After 24 days): 23.8
  Phytotoxicity: light
  Fruit Set Per Plant (Initial): 10.8
  Increase (%) of fruit set: 120%
